Laboratory results published in the supplement of paper PMC10331698.
± gives the standard deviation of the averaged measurements.

Tests used:
Assay in all cases: level (log10 ratio to DMSO vehicle control); higher = higher biomarker level / cell amount than vehicle control
[1] = compound: O=C(O)CCC(F)(C(F)(F)F)C(F)(F)F [4,4-bis(Trifluoromethyl)-4-fluoropropanoic acid] (in DMSO)
Experimental: (§1)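 BioMAP Diversity Plus panel of 12 human primary cell co-culture systems (3C, 4H, LPS, SAg, BT, BF4T, BE3C, CASM3C, HDF3CGF, KF3CT, MyoF, Mphg). Compounds were added 1 h before stimulation and left for 24 h (MyoF 48 h; BT 72 h for soluble read-outs or 6 d for IgG). Biomarkers were read by ELISA, cytotoxicity by SRB, PBMC viability and proliferation by Alamar Blue. Each well value was divided by the mean of 8 DMSO control wells on the same plate and log10 transformed; duplicate blinded samples were tested at 4 concentrations.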

[2] = compound: CCOC(=O)CC(=O)C(F)(F)C(F)(F)F [Ethyl pentafluoropropionyl acetate] (in DMSO)
Experimental: as §1

[3] = compound: O=C(O)C(F)(OC(F)(F)C(F)(F)C(F)(F)F)C(F)(F)F [Ammonium perfluoro-2-methyl-3-oxahexanoate] (in Water)
Experimental: as §1

[4] = compound: O=S(=O)(O)C(F)(F)C(F)(F)OC(F)(F)C(F)(F)F [Perfluoro(2-ethoxyethane)sulfonic acid] (in DMSO)
Experimental: as §1

[5] = compound: O=S(=O)(O)CCC(F)(F)C(F)(F)C(F)(F)C(F)(F)C(F)(F)C(F)(F)C(F)(F)C(F)(F)F [8:2 Fluorotelomer sulfonic acid] (in DMSO)
Experimental: as §1

[6] = compound: O=C(O)C(F)(F)C(F)(F)C(F)(F)OC(F)(F)F [Perfluoro(4-methoxybutanoic) acid] (in DMSO)
Experimental: as §1

| Test System | level (log10) ([1]; 6700 nM) | level (log10) ([1]; 20000 nM) | level (log10) ([1]; 60000 nM) | level (log10) ([2]; 6700 nM) | level (log10) ([2]; 20000 nM) | level (log10) ([2]; 60000 nM) | level (log10) ([3]; 6700 nM) | level (log10) ([3]; 20000 nM) | level (log10) ([3]; 60000 nM) | level (log10) ([4]; 6700 nM) | level (log10) ([4]; 20000 nM) | level (log10) ([4]; 60000 nM) | level (log10) ([5]; 6700 nM) | level (log10) ([5]; 20000 nM) | level (log10) ([5]; 60000 nM) | level (log10) ([6]; 6700 nM) | level (log10) ([6]; 20000 nM) | level (log10) ([6]; 60000 nM) |
| --- | --- | --- | --- | --- | --- | --- | --- | --- | --- | --- | --- | --- | --- | --- | --- | --- | --- | --- |
| MyoF:Decorin | -0.0215 ± 0.025 | -0.015 ± 0.044 | -0.001 ± 0.04 | -0.0135 ± 0.026 | -0.0025 ± 0.016 | 0.023 ± 0.014 | -0.048 ± 0.023 | -0.02 ± 0.0085 | -0.024 ± 0.013 | -0.0085 ± 0.0092 | 0.001 ± 0.013 | 0.0355 ± 0.005 | 0.0555 ± 0.029 | 0.024 ± 0.03 | -0.001 ± 0.0014 | -0.024 ± 0.041 | 0.0175 ± 0.079 | -0.0075 ± 0.063 |
| MyoF:MMP-1 | 0.0125 ± 0.013 | -0.0265 ± 0.00071 | 0 ± 0.011 | -0.0245 ± 0.03 | -0.0125 ± 0.011 | 0.034 ± 0.058 | -0.0025 ± 0.0064 | 0.0185 ± 0.0092 | -0.0095 ± 0.0064 | -0.005 ± 0.014 | -0.0365 ± 0.00071 | 0.0155 ± 0.037 | -0.0245 ± 0.043 | -0.0365 ± 0.028 | 0.0175 ± 0.005 | -0.0165 ± 0.0078 | -0.0245 ± 0.026 | 0.0205 ± 0.06 |
| MyoF:PAI-I | -0.005 ± 0.0057 | -0.007 ± 0.0042 | -0.006 ± 0.0099 | -0.0005 ± 0.021 | 0.006 ± 0.017 | 0.0055 ± 0.015 | -0.0005 ± 0.005 | -0.0025 ± 0.0064 | -0.019 ± 0.011 | -0.0005 ± 0.00071 | -0.009 ± 0.013 | 0.0015 ± 0.011 | -0.008 ± 0.011 | -0.009 ± 0.0042 | 0.0185 ± 0.019 | -0.003 ± 0.0042 | -0.0045 ± 0.0064 | 0.0005 ± 0.00071 |
| MyoF:SRB | -0.004 ± 0.0028 | -0.003 ± 0.0014 | 0.0025 ± 0.0021 | -0.001 ± 0.0028 | -0.0065 ± 0.00071 | -0.0045 ± 0.00071 | 0.0095 ± 0.0035 | 0.013 ± 0.013 | 0.0085 ± 0.0035 | -0.005 ± 0.0071 | -0.005 | -0.0015 ± 0.0064 | -0.0005 ± 0.0021 | -0.009 ± 0.0014 | -0.0035 ± 0.0035 | -0.0075 ± 0.0035 | -0.008 ± 0.0028 | -0.0005 ± 0.00071 |
| MyoF:TIMP-1 | -0.0245 ± 0.091 | -0.042 ± 0.064 | -0.0345 ± 0.025 | -0.005 ± 0.023 | -0.012 ± 0.023 | 0.0125 ± 0.022 | -0.0395 ± 0.0092 | -0.0635 ± 0.015 | -0.068 ± 0.0028 | 0.003 ± 0.0014 | 0.036 ± 0.028 | 0.0775 ± 0.025 | -0.0185 ± 0.0035 | 0.0095 ± 0.021 | -0.008 ± 0.018 | -0.0155 ± 0.057 | -0.0185 ± 0.074 | -0.0135 ± 0.071 |
| MyoF:alpha-SM Actin | 0.0205 ± 0.093 | 0.03 ± 0.095 | 0.0195 ± 0.079 | -0.0145 ± 0.03 | -0.0235 ± 0.0078 | -0.019 ± 0.013 | 0.001 ± 0.011 | 0.0005 ± 0.022 | -0.0035 ± 0.0035 | 0.006 ± 0.025 | 0.0075 ± 0.0078 | -0.017 ± 0.0028 | 0.034 ± 0.02 | 0.001 ± 0.014 | -0.0125 ± 0.025 | 0.025 ± 0.028 | -0.0045 ± 0.028 | -0.002 ± 0.0057 |
| MyoF:bFGF | 0.005 ± 0.025 | 0.002 ± 0.023 | 0.0155 ± 0.015 | -0.0045 ± 0.0064 | 0.0015 ± 0.0021 | 0.0135 ± 0.012 | 0.017 ± 0.0099 | 0.006 ± 0.0014 | 0.0005 ± 0.0092 | 0.003 ± 0.0014 | 0.0085 ± 0.0064 | 0.0165 ± 0.0092 | 0.0045 ± 0.012 | 0.006 ± 0.023 | 0.0265 ± 0.0021 | 0.001 ± 0.0042 | 0.0015 ± 0.012 | 0.015 ± 0.0042 |
| lMphg:CCL2/MCP-1 | -0.01 ± 0.017 | 0.0105 ± 0.0064 | 0.011 ± 0.017 | -0.023 ± 0.045 | -0.0135 ± 0.021 | 0.0125 ± 0.037 | 0.0165 ± 0.005 | 0.0125 ± 0.012 | 0.038 ± 0.027 | -0.01 ± 0.03 | 0.005 ± 0.028 | -0.002 ± 0.0042 | 0.0075 ± 0.019 | -0.019 ± 0.016 | 0.0155 ± 0.00071 | -0.0195 ± 0.026 | -0.0075 ± 0.029 | 0.0265 ± 0.00071 |
| lMphg:CCL3/MIP-1alpha | 0.03 ± 0.047 | 0.0255 ± 0.025 | 0.021 ± 0.035 | -0.0265 ± 0.026 | -0.0305 ± 0.0078 | 0.0075 ± 0.022 | -0.0685 ± 0.035 | -0.067 ± 0.0014 | -0.0185 ± 0.054 | 0.0145 ± 0.025 | 0.0015 ± 0.0064 | 0.0065 ± 0.021 | 0.0035 ± 0.03 | 0.0095 ± 0.026 | 0.0065 ± 0.032 | -0.0355 ± 0.035 | -0.038 ± 0.024 | -0.015 ± 0.021 |
| lMphg:CD40 | 0.0025 ± 0.016 | -0.001 ± 0.041 | -0.031 ± 0.041 | -0.0205 ± 0.0092 | -0.0135 ± 0.0092 | 0.003 ± 0.061 | -0.0295 ± 0.0064 | -0.045 ± 0.0099 | -0.049 ± 0.011 | -0.018 ± 0.02 | -0.013 ± 0.037 | -0.0215 ± 0.025 | -0.026 ± 0.023 | -0.052 ± 0.0028 | -0.0995 ± 0.019 | -0.014 ± 0.024 | -0.027 ± 0.033 | -0.0375 ± 0.03 |
| lMphg:CD62E/E-Selectin | -0.02 ± 0.038 | -0.0155 ± 0.035 | -0.0285 ± 0.06 | -0.036 ± 0.02 | -0.0245 ± 0.012 | 0.0115 ± 0.025 | 0.013 ± 0.0071 | 0.002 ± 0.0071 | 0.0245 ± 0.013 | 0.0175 ± 0.0092 | 0.0275 ± 0.0092 | 0.0425 ± 0.0092 | 0.0165 ± 0.0092 | 0.048 ± 0.0042 | 0.103 ± 0.0057 | -0.0175 ± 0.047 | -0.0265 ± 0.057 | -0.0225 ± 0.054 |
| lMphg:CD69 | 0.015 ± 0.0071 | 0 ± 0.027 | -0.021 ± 0.0042 | -0.0405 ± 0.0064 | 0.0005 ± 0.064 | 0.0075 ± 0.12 | -0.0435 ± 0.011 | 0 ± 0.013 | -0.0185 ± 0.015 | -0.043 ± 0.075 | 0.011 ± 0.0099 | -0.0415 ± 0.0078 | -0.0695 ± 0.023 | -0.059 ± 0.0028 | -0.173 ± 0.025 | -0.0165 ± 0.047 | -0.0145 ± 0.071 | 0.005 ± 0.099 |
| lMphg:CD106/VCAM-1 | -0.007 ± 0.011 | 0.0005 ± 0.0092 | -0.009 ± 0.017 | -0.023 ± 0.0028 | 0.013 ± 0.0028 | 0.0195 ± 0.005 | -0.0195 ± 0.0035 | -0.013 ± 0.0028 | -0.0085 ± 0.0035 | -0.0225 ± 0.0064 | -0.016 ± 0.017 | -0.023 ± 0.0014 | -0.0355 ± 0.005 | -0.042 ± 0.0071 | -0.08 ± 0.0057 | 0.0015 ± 0.0035 | -0.0015 ± 0.022 | -0.0085 ± 0.021 |
| lMphg:CXCL8/IL-8 | 0.017 ± 0.059 | 0.032 ± 0.024 | 0.01 ± 0.076 | -0.0295 ± 0.023 | -0.01 ± 0.0042 | 0.0095 ± 0.049 | 0.137 ± 0.0021 | 0.194 ± 0.0078 | 0.261 ± 0.025 | 0.0055 ± 0.005 | 0.034 ± 0.018 | 0.118 ± 0.016 | 0.001 ± 0.0085 | 0.022 ± 0.013 | 0.0775 ± 0.0035 | 0.001 ± 0.04 | 0.005 ± 0.011 | 0.083 ± 0.037 |
